{
  "source": "PubChem BioAssay AID1963963",
  "about": "(Molecular Pharmacology Branch, DTP, NCI, 2024)",
  "test_system": "958667-338-R-J2-PDC tumor spheroids viability",
  "assay": "Anticancer human tumor 958667-338-R-J2-PDC patient-derived colon adenocarcinoma cell line growth inhibition [PI3K]",
  "settings": "spheroids with HUVEC and MSC; for pIC50: curve of first compound; for viability, T/C: stronger effect = lower value",
  "outline": "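Tumor cells grown as multi-cell spheroids with HUVEC endothelial cells and MSC fibroblast-like stroma were treated with targeted agents combined with inavolisib, alpelisib, duvelisib or copanlisib. Doses fell in half-log steps from near clinical Cmax, else from 10 microM. Viability was measured.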",
  "key": {"[1]": {"settings": "second compound 0.0316 µM, first compound 0.0316 µM"}, "[2]": {"settings": "second compound 0.0316 µM, first compound 0.1 µM"}, "[3]": {"settings": "second compound 0.0316 µM, first compound 0.316 µM"}, "[4]": {"settings": "second compound 0.0316 µM, first compound 1 µM"}, "[5]": {"settings": "second compound 0.0316 µM, first compound 3.16 µM"}, "[6]": {"settings": "second compound 0.0316 µM, first compound 10 µM"}, "[7]": {"settings": "second compound 0.1 µM, first compound 0.0316 µM"}, "[8]": {"settings": "second compound 0.1 µM, first compound 0.1 µM"}, "[9]": {"settings": "second compound 0.1 µM, first compound 0.316 µM"}, "[10]": {"settings": "second compound 0.1 µM, first compound 1 µM"}, "[11]": {"settings": "second compound 0.1 µM, first compound 3.16 µM"}, "[12]": {"settings": "second compound 0.1 µM, first compound 10 µM"}, "[13]": {"settings": "second compound 0.316 µM, first compound 0.0316 µM"}, "[14]": {"settings": "second compound 0.316 µM, first compound 0.1 µM"}, "[15]": {"settings": "second compound 0.316 µM, first compound 0.316 µM"}, "[16]": {"settings": "second compound 0.316 µM, first compound 1 µM"}, "[17]": {"settings": "second compound 0.316 µM, first compound 3.16 µM"}, "[18]": {"settings": "second compound 0.316 µM, first compound 10 µM"}, "[19]": {"settings": "second compound 1 µM, first compound 0.0316 µM"}, "[20]": {"settings": "second compound 1 µM, first compound 0.1 µM"}, "[21]": {"settings": "second compound 1 µM, first compound 0.316 µM"}, "[22]": {"settings": "second compound 1 µM, first compound 1 µM"}, "[23]": {"settings": "second compound 1 µM, first compound 3.16 µM"}, "[24]": {"settings": "second compound 1 µM, first compound 10 µM"}},
  "note": "pIC50: −log10 of the molar value.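 Also: spheroids exposed to compounds for seven days before readout.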",
  "data": [
    {"smiles": "C=CC(=O)N1CCN(c2nc(=O)n(-c3c(C)ccnc3C(C)C)c3nc(-c4c(O)cccc4F)c(F)cc23)C(C)C1", "note": "(centres undefined) + Cc1nc(NC(=O)N2CCCC2C(N)=O)sc1-c1ccnc(C(C)(C)C(F)(F)F)c1", "values": [
      {"measurement": "pIC50", "setting": "second compound 0.0316 µM", "value": "< 5.00"},
      {"measurement": "pIC50", "setting": "second compound 0.1 µM", "value": "< 5.00"},
      {"measurement": "pIC50", "setting": "second compound 0.316 µM", "value": "< 5.00"},
      {"measurement": "pIC50", "setting": "second compound 1 µM", "value": "< 5.00"},
      {"measurement": "pIC50", "setting": "second compound 3.16 µM", "value": "< 5.00"},
      {"measurement": "pIC50", "setting": "second compound 10 µM", "value": "< 5.00"},
      {"measurement": "viability, T/C", "setting": "[1]", "value": 94.5, "unit": "%"},
      {"measurement": "viability, T/C", "setting": "[2]", "value": 100, "unit": "%"},
      {"measurement": "viability, T/C", "setting": "[3]", "value": 96.8, "unit": "%"},
      {"measurement": "viability, T/C", "setting": "[4]", "value": 114, "unit": "%"},
      {"measurement": "viability, T/C", "setting": "[5]", "value": 126, "unit": "%"},
      {"measurement": "viability, T/C", "setting": "[6]", "value": 112, "unit": "%"},
      {"measurement": "viability, T/C", "setting": "[7]", "value": 94.8, "unit": "%"},
      {"measurement": "viability, T/C", "setting": "[8]", "value": 111, "unit": "%"},
      {"measurement": "viability, T/C", "setting": "[9]", "value": 96.6, "unit": "%"},
      {"measurement": "viability, T/C", "setting": "[10]", "value": 110, "unit": "%"},
      {"measurement": "viability, T/C", "setting": "[11]", "value": 129, "unit": "%"},
      {"measurement": "viability, T/C", "setting": "[12]", "value": 107, "unit": "%"},
      {"measurement": "viability, T/C", "setting": "[13]", "value": 97.9, "unit": "%"},
      {"measurement": "viability, T/C", "setting": "[14]", "value": 86.9, "unit": "%"},
      {"measurement": "viability, T/C", "setting": "[15]", "value": 94.7, "unit": "%"},
      {"measurement": "viability, T/C", "setting": "[16]", "value": 113, "unit": "%"},
      {"measurement": "viability, T/C", "setting": "[17]", "value": 94.7, "unit": "%"},
      {"measurement": "viability, T/C", "setting": "[18]", "value": 84.7, "unit": "%"},
      {"measurement": "viability, T/C", "setting": "[19]", "value": 94, "unit": "%"},
      {"measurement": "viability, T/C", "setting": "[20]", "value": 76.7, "unit": "%"},
      {"measurement": "viability, T/C", "setting": "[21]", "value": 107, "unit": "%"},
      {"measurement": "viability, T/C", "setting": "[22]", "value": 83, "unit": "%"},
      {"measurement": "viability, T/C", "setting": "[23]", "value": 88.5, "unit": "%"},
      {"measurement": "viability, T/C", "setting": "[24]", "value": 85.2, "unit": "%"},
      {"measurement": "viability, T/C", "setting": "second compound 3.16 µM, first compound 0.0316 µM", "value": 80.4, "unit": "%"},
      {"measurement": "viability, T/C", "setting": "second compound 3.16 µM, first compound 0.1 µM", "value": 73.5, "unit": "%"},
      {"measurement": "viability, T/C", "setting": "second compound 3.16 µM, first compound 0.316 µM", "value": 68.6, "unit": "%"},
      {"measurement": "viability, T/C", "setting": "second compound 3.16 µM, first compound 1 µM", "value": 73.3, "unit": "%"},
      {"measurement": "viability, T/C", "setting": "second compound 3.16 µM, first compound 3.16 µM", "value": 93.5, "unit": "%"},
      {"measurement": "viability, T/C", "setting": "second compound 3.16 µM, first compound 10 µM", "value": 82.2, "unit": "%"},
      {"measurement": "viability, T/C", "setting": "second compound 10 µM, first compound 0.0316 µM", "value": 69.1, "unit": "%"},
      {"measurement": "viability, T/C", "setting": "second compound 10 µM, first compound 0.1 µM", "value": 60.5, "unit": "%"},
      {"measurement": "viability, T/C", "setting": "second compound 10 µM, first compound 0.316 µM", "value": 48.8, "unit": "%"},
      {"measurement": "viability, T/C", "setting": "second compound 10 µM, first compound 1 µM", "value": 63.5, "unit": "%"},
      {"measurement": "viability, T/C", "setting": "second compound 10 µM, first compound 3.16 µM", "value": 65.8, "unit": "%"},
      {"measurement": "viability, T/C", "setting": "second compound 10 µM, first compound 10 µM", "value": 68.9, "unit": "%"}
    ]},
    {"smiles": "CNC(=O)c1ccc(N2C(=S)N(c3ccc(C#N)c(C(F)(F)F)c3)C(=O)C2(C)C)cc1F", "note": "+ COc1c(OCCCN2CCOCC2)ccc2c3n(c(=NC(=O)c4cnc(N)nc4)nc12)CCN3", "values": [
      {"measurement": "pIC50", "setting": "second compound 0.00316 µM", "value": "< 5.00"},
      {"measurement": "pIC50", "setting": "second compound 0.01 µM", "value": "< 5.00"},
      {"measurement": "pIC50", "setting": "second compound 0.0316 µM", "value": "< 5.00"},
      {"measurement": "pIC50", "setting": "second compound 0.1 µM", "value": 5.37},
      {"measurement": "pIC50", "setting": "second compound 0.316 µM", "value": "> 7.50"},
      {"measurement": "pIC50", "setting": "second compound 1 µM", "value": "> 7.50"},
      {"measurement": "viability, T/C", "setting": "second compound 0.00316 µM, first compound 0.0316 µM", "value": 95.2, "unit": "%"},
      {"measurement": "viability, T/C", "setting": "second compound 0.00316 µM, first compound 0.1 µM", "value": 97.8, "unit": "%"},
      {"measurement": "viability, T/C", "setting": "second compound 0.00316 µM, first compound 0.316 µM", "value": 91.4, "unit": "%"},
      {"measurement": "viability, T/C", "setting": "second compound 0.00316 µM, first compound 1 µM", "value": 96.5, "unit": "%"},
      {"measurement": "viability, T/C", "setting": "second compound 0.00316 µM, first compound 3.16 µM", "value": 109, "unit": "%"},
      {"measurement": "viability, T/C", "setting": "second compound 0.00316 µM, first compound 10 µM", "value": 82.1, "unit": "%"},
      {"measurement": "viability, T/C", "setting": "second compound 0.01 µM, first compound 0.0316 µM", "value": 81.9, "unit": "%"},
      {"measurement": "viability, T/C", "setting": "second compound 0.01 µM, first compound 0.1 µM", "value": 88.9, "unit": "%"},
      {"measurement": "viability, T/C", "setting": "second compound 0.01 µM, first compound 0.316 µM", "value": 90.1, "unit": "%"},
      {"measurement": "viability, T/C", "setting": "second compound 0.01 µM, first compound 1 µM", "value": 82.7, "unit": "%"},
      {"measurement": "viability, T/C", "setting": "second compound 0.01 µM, first compound 3.16 µM", "value": 105, "unit": "%"},
      {"measurement": "viability, T/C", "setting": "second compound 0.01 µM, first compound 10 µM", "value": 92, "unit": "%"},
      {"measurement": "viability, T/C", "setting": "[1]", "value": 68.5, "unit": "%"},
      {"measurement": "viability, T/C", "setting": "[2]", "value": 74.7, "unit": "%"},
      {"measurement": "viability, T/C", "setting": "[3]", "value": 74.7, "unit": "%"},
      {"measurement": "viability, T/C", "setting": "[4]", "value": 68.2, "unit": "%"},
      {"measurement": "viability, T/C", "setting": "[5]", "value": 92.7, "unit": "%"},
      {"measurement": "viability, T/C", "setting": "[6]", "value": 67.8, "unit": "%"},
      {"measurement": "viability, T/C", "setting": "[7]", "value": 54.9, "unit": "%"},
      {"measurement": "viability, T/C", "setting": "[8]", "value": 61.4, "unit": "%"},
      {"measurement": "viability, T/C", "setting": "[9]", "value": 56.2, "unit": "%"},
      {"measurement": "viability, T/C", "setting": "[10]", "value": 59.7, "unit": "%"},
      {"measurement": "viability, T/C", "setting": "[11]", "value": 50.5, "unit": "%"},
      {"measurement": "viability, T/C", "setting": "[12]", "value": 42.8, "unit": "%"},
      {"measurement": "viability, T/C", "setting": "[13]", "value": 40.9, "unit": "%"},
      {"measurement": "viability, T/C", "setting": "[14]", "value": 47.6, "unit": "%"},
      {"measurement": "viability, T/C", "setting": "[15]", "value": 38.8, "unit": "%"},
      {"measurement": "viability, T/C", "setting": "[16]", "value": 33.2, "unit": "%"},
      {"measurement": "viability, T/C", "setting": "[17]", "value": 31.5, "unit": "%"},
      {"measurement": "viability, T/C", "setting": "[18]", "value": 22.7, "unit": "%"},
      {"measurement": "viability, T/C", "setting": "[19]", "value": 19.5, "unit": "%"},
      {"measurement": "viability, T/C", "setting": "[20]", "value": 20.9, "unit": "%"},
      {"measurement": "viability, T/C", "setting": "[21]", "value": 17.4, "unit": "%"},
      {"measurement": "viability, T/C", "setting": "[22]", "value": 18.3, "unit": "%"},
      {"measurement": "viability, T/C", "setting": "[23]", "value": 16, "unit": "%"},
      {"measurement": "viability, T/C", "setting": "[24]", "value": 9.91, "unit": "%"}
    ]}
  ]
}
